Data: PubChem BioAssay AID1963971 (Molecular Pharmacology Branch, DTP, NCI, 2024)

System: 953936-095-R-J2-PDC spheroids with HUVEC/MSC, viability
Experiment: Anticancer human tumor 953936-095-R-J2-PDC patient-derived cervical squamous cell carcinoma cell line growth inhibition [PI3K]
Conditions: for IC50: curve of first compound; for viability, T/C: stronger effect = lower value
Text: Combinatorial screen of targeted agents with the PI3K inhibitors inavolisib, alpelisib, duvelisib, and copanlisib in multi-cell type tumor spheroids
A high-throughput screen of multi-cell type tumor spheroids was designed to identify active combinations of targeted small molecules and PI3K pathway inhibitors. Complex spheroids include a stromal component modeled by human endothelial cells (HUVEC) and fibroblasts modeled by human mesenchymal stem cells (MSCs). The concentration ranges selected for each drug and investigational agent were based upon clinically achievable concentrations if the clinical Cmax of the agent was known.
Compounds. The drugs and investigational agents: inavolisib (NSC800729), alpelisib (NSC765974), duvelisib (NSC772469), copanlisib (NSC816437), ipatasertib (NSC767898), afuresertib (NSC778305), talazoparib (NSC767125), sapanisertib (NSC764658), selumetinib (NSC741078), tovorafenib (DAY101, NSC766906), vemurafenib (NSC761431), ravoxertinib (NSC781343), sotorasib (NSC818433), MRTX1133 (NSC 836407), abemaciclib (NSC 768073), palbociclib (NSC758247), venetoclax (NSC 766270), SY5609 (NSC837396), enzalutamide (NSC755605), and darolutamide (NSC825331), were obtained from the National Cancer Institute (NCI) Developmental Therapeutics Program Chemical Repository. The FDA-approved anticancer drug set is available from the NCI Developmental Therapeutics Program. […] The stock solutions were prepared in dimethyl sulfoxide (DMSO, Sigma-Aldrich, St. Louis, MO, cat. D2650) at 800-fold the tested concentration and stored at -70 degrees C prior to their use. All drugs and investigational agents were tested over a range starting from a high concentration at or near the clinical Cmax and decreasing in half-log increments. If the clinical Cmax for an agent had not been determined, the highest concentration tested was 10 microM.
Cell Culture. All cells were maintained in an incubator at 37 degrees C and 5% CO2 with 95% humidity. The PDC lines were cultured according to standard operating procedures established by the NCI PDMR (https://pdmr.cancer.gov/sops/default.htm). All PDCs were thawed and cultured in Matrigel-coated flasks prepared with a working solution of 1X Ham's F-12 nutrient mix, without supplementation (Invitrogen, Waltham, MA, cat. 11765054), 100 U/mL penicillin-streptomycin (Invitrogen, cat. 15140122), and 2.5% Matrigel (Corning Inc., Corning, NY, cat. 354248) for the first three passages. The 354836-022-R-J1-PDC, 475296-252-R-J1-PDC, and 997726-040-R-J2-PDC lines were cultured in 6A media, which includes advanced DMEM/F-12 (Thermo Fisher Scientific, cat. 12634028), 10 mM HEPES (Thermo Fisher Scientific, cat. 15630080), 1X GlutaMAX supplement (Thermo Fisher Scientific, cat. 35050061), 0.1 mg/mL primocin (InvivoGen, San Diego, CA, cat. ant-pm-2), 10% defined fetal bovine serum, heat inactivated (HyClone Laboratories Inc., Logan, UT, cat. SH30070.03HI), 50% L-WRN conditioned media (ATCC, cat. CRL-3276), 1.25 mM N-Acetyl-L-cysteine (Sigma-Aldrich, cat. A9165), 10 mM nicotinamide (Sigma-Aldrich, cat. N0636), 1X B-27 supplement (Thermo Fisher Scientific, cat. 17504044), 1X N-2 supplement (Thermo Fisher Scientific, cat. 17502048), and 10 microM Y-27632 dihydrochloride (Tocris Bioscience, Bristol, United Kingdom, cat. 1254). The 624824-186-R-J2-PDC line was cultured in 6C/Colon 1B media, which includes all 6A media components plus 50 ng/mL human EGF recombinant protein (Thermo Fisher Scientific, cat. PHG0311). […]

[1] = second compound 0.00316 µM, first compound 0.0316 µM
[2] = second compound 0.00316 µM, first compound 0.1 µM
[3] = second compound 0.01 µM, first compound 0.0316 µM
[4] = second compound 0.01 µM, first compound 0.1 µM
[5] = second compound 0.0316 µM, first compound 0.0316 µM
[6] = second compound 0.0316 µM, first compound 0.1 µM
[7] = second compound 0.1 µM, first compound 0.0316 µM
[8] = second compound 0.1 µM, first compound 0.1 µM
[9] = second compound 0.316 µM, first compound 0.0316 µM
[10] = second compound 0.316 µM, first compound 0.1 µM
[11] = second compound 1 µM, first compound 0.0316 µM
[12] = second compound 1 µM, first compound 0.1 µM
[13] = second compound 0.00316 µM, first compound 0.316 µM
[14] = second compound 0.00316 µM, first compound 1 µM
[15] = second compound 0.00316 µM, first compound 3.16 µM
[16] = second compound 0.00316 µM, first compound 10 µM
[17] = second compound 0.01 µM, first compound 0.316 µM
[18] = second compound 0.01 µM, first compound 1 µM
[19] = second compound 0.01 µM, first compound 3.16 µM
[20] = second compound 0.01 µM, first compound 10 µM
[21] = second compound 0.0316 µM, first compound 0.316 µM
[22] = second compound 0.0316 µM, first compound 1 µM
[23] = second compound 0.0316 µM, first compound 3.16 µM
[24] = second compound 0.0316 µM, first compound 10 µM
[25] = second compound 0.1 µM, first compound 0.316 µM
[26] = second compound 0.1 µM, first compound 1 µM
[27] = second compound 0.1 µM, first compound 3.16 µM
[28] = second compound 0.1 µM, first compound 10 µM
[29] = second compound 0.316 µM, first compound 0.316 µM
[30] = second compound 0.316 µM, first compound 1 µM
[31] = second compound 0.316 µM, first compound 3.16 µM
[32] = second compound 0.316 µM, first compound 10 µM
[33] = second compound 1 µM, first compound 0.316 µM
[34] = second compound 1 µM, first compound 1 µM
[35] = second compound 1 µM, first compound 3.16 µM
[36] = second compound 1 µM, first compound 10 µM
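Further: spheroids exposed to compounds for seven days before read-out.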

SMILES: CC(=O)c1c(C)c2cnc(Nc3ccc(N4CCNCC4)cn3)nc2n(C2CCCC2)c1=O + CC(Nc1ccc2c(c1)OCCn1cc(N3C(=O)OCC3C(F)F)nc1-2)C(N)=O
- IC50 (second compound 0.00316 µM): > 0.1 µM
- IC50 (second compound 0.01 µM): > 0.1 µM
- IC50 (second compound 0.0316 µM): > 0.1 µM
- IC50 (second compound 0.1 µM): > 0.1 µM
- IC50 (second compound 0.316 µM): < 0.000316 µM
- IC50 (second compound 1 µM): < 0.000316 µM
- viability, T/C (second compound 0.00316 µM, first compound 0.000316 µM): 89.4%
- viability, T/C (second compound 0.00316 µM, first compound 0.001 µM): 93.1%
- viability, T/C (second compound 0.00316 µM, first compound 0.00316 µM): 98%
- viability, T/C (second compound 0.00316 µM, first compound 0.01 µM): 99.6%
- viability, T/C [1]: 93.5%
- viability, T/C [2]: 93.3%
- viability, T/C (second compound 0.01 µM, first compound 0.000316 µM): 94.9%
- viability, T/C (second compound 0.01 µM, first compound 0.001 µM): 87.5%
- viability, T/C (second compound 0.01 µM, first compound 0.00316 µM): 88.9%
- viability, T/C (second compound 0.01 µM, first compound 0.01 µM): 93.8%
- viability, T/C [3]: 85.7%
- viability, T/C [4]: 92%
- viability, T/C (second compound 0.0316 µM, first compound 0.000316 µM): 76.3%
- viability, T/C (second compound 0.0316 µM, first compound 0.001 µM): 74.9%
- viability, T/C (second compound 0.0316 µM, first compound 0.00316 µM): 74.8%
- viability, T/C (second compound 0.0316 µM, first compound 0.01 µM): 76.5%
- viability, T/C [5]: 79.1%
- viability, T/C [6]: 68.4%
- viability, T/C (second compound 0.1 µM, first compound 0.000316 µM): 66.9%
- viability, T/C (second compound 0.1 µM, first compound 0.001 µM): 59.6%
- viability, T/C (second compound 0.1 µM, first compound 0.00316 µM): 58.6%
- viability, T/C (second compound 0.1 µM, first compound 0.01 µM): 54.5%
- viability, T/C [7]: 55.6%
- viability, T/C [8]: 54.5%
- viability, T/C (second compound 0.316 µM, first compound 0.000316 µM): 35.2%
- viability, T/C (second compound 0.316 µM, first compound 0.001 µM): 34.6%
- viability, T/C (second compound 0.316 µM, first compound 0.00316 µM): 35.6%
- viability, T/C (second compound 0.316 µM, first compound 0.01 µM): 37.7%
- viability, T/C [9]: 33.6%
- viability, T/C [10]: 35.3%
- viability, T/C (second compound 1 µM, first compound 0.000316 µM): 25%
- viability, T/C (second compound 1 µM, first compound 0.001 µM): 22.6%
- viability, T/C (second compound 1 µM, first compound 0.00316 µM): 21.7%
- viability, T/C (second compound 1 µM, first compound 0.01 µM): 22%
- viability, T/C [11]: 25.5%
- viability, T/C [12]: 22.9%

SMILES: CCCS(=O)(=O)Nc1ccc(F)c(C(=O)c2c[nH]c3ncc(-c4ccc(Cl)cc4)cc23)c1F + CC(Nc1ccc2c(c1)OCCn1cc(N3C(=O)OCC3C(F)F)nc1-2)C(N)=O
- IC50 (second compound 0.00316 µM): 5.19 µM
- IC50 (second compound 0.01 µM): 4.76 µM
- IC50 (second compound 0.0316 µM): 4.77 µM
- IC50 (second compound 0.1 µM): 3.26 µM
- IC50 (second compound 0.316 µM): < 0.0316 µM
- IC50 (second compound 1 µM): < 0.0316 µM
- viability, T/C [1]: 93.9%
- viability, T/C [2]: 101%
- viability, T/C [13]: 104%
- viability, T/C [14]: 111%
- viability, T/C [15]: 87.3%
- viability, T/C [16]: 0.81%
- viability, T/C [3]: 91.7%
- viability, T/C [4]: 94.8%
- viability, T/C [17]: 96.4%
- viability, T/C [18]: 98.7%
- viability, T/C [19]: 77.1%
- viability, T/C [20]: 0.48%
- viability, T/C [5]: 82%
- viability, T/C [6]: 78.7%
- viability, T/C [21]: 78.7%
- viability, T/C [22]: 81.9%
- viability, T/C [23]: 75.6%
- viability, T/C [24]: 3.87%
- viability, T/C [7]: 56.3%
- viability, T/C [8]: 58.7%
- viability, T/C [25]: 59%
- viability, T/C [26]: 56.1%
- viability, T/C [27]: 51.5%
- viability, T/C [28]: 0.85%
- viability, T/C [9]: 34%
- viability, T/C [10]: 34%
- viability, T/C [29]: 35.5%
- viability, T/C [30]: 35.8%
- viability, T/C [31]: 27.4%
- viability, T/C [32]: 0.86%
- viability, T/C [11]: 21.7%
- viability, T/C [12]: 23.6%
- viability, T/C [33]: 23.1%
- viability, T/C [34]: 26%
- viability, T/C [35]: 17.9%
- viability, T/C [36]: 0.87%

SMILES: CNC(=O)c1ccc(N2C(=S)N(c3ccc(C#N)c(C(F)(F)F)c3)C(=O)C2(C)C)cc1F + CC(Nc1ccc2c(c1)OCCn1cc(N3C(=O)OCC3C(F)F)nc1-2)C(N)=O
- IC50 (second compound 0.00316 µM): > 10 µM
- IC50 (second compound 0.01 µM): > 10 µM
- IC50 (second compound 0.0316 µM): > 10 µM
- IC50 (second compound 0.1 µM): 4.15 µM
- IC50 (second compound 0.316 µM): < 0.0316 µM
- IC50 (second compound 1 µM): < 0.0316 µM
- viability, T/C [1]: 89.1%
- viability, T/C [2]: 103%
- viability, T/C [13]: 90.5%
- viability, T/C [14]: 87.3%
- viability, T/C [15]: 88.1%
- viability, T/C [16]: 77.5%
- viability, T/C [3]: 93.4%
- viability, T/C [4]: 92.7%
- viability, T/C [17]: 90.3%
- viability, T/C [18]: 84.4%
- viability, T/C [19]: 90.5%
- viability, T/C [20]: 88.6%
- viability, T/C [5]: 75.9%
- viability, T/C [6]: 78.6%
- viability, T/C [21]: 87%
- viability, T/C [22]: 71%
- viability, T/C [23]: 74.5%
- viability, T/C [24]: 71.4%
- viability, T/C [7]: 60.7%
- viability, T/C [8]: 55.5%
- viability, T/C [25]: 57.2%
- viability, T/C [26]: 53.4%
- viability, T/C [27]: 50.5%
- viability, T/C [28]: 47.8%
- viability, T/C [9]: 32.5%
- viability, T/C [10]: 35.6%
- viability, T/C [29]: 35.1%
- viability, T/C [30]: 36.4%
- viability, T/C [31]: 33.3%
- viability, T/C [32]: 31.5%
- viability, T/C [11]: 22.4%
- viability, T/C [12]: 22.8%
- viability, T/C [33]: 21.5%
- viability, T/C [34]: 21.8%
- viability, T/C [35]: 24.1%
- viability, T/C [36]: 23%
